According to publication PMC9019904, “AD Informer Set: Chemical tools to facilitate Alzheimer's disease drug discovery” (Alzheimer's & Dementia : Translational Research & Clinical …, 2022):

Experiments:
[1] = tested on: BV2 (mouse microglia) cell line; experiment: pHrodo-myelin phagocytosis/cell viability high content imaging assay: viability (cell count, nuclear area, nuclear intensity); conditions: for 1. Cell count (% control) / 2. Nuclear Area (% Control) / 3. Nuclear DNA Intensity (% control): 48 hours treatment
Experimental: (§1) All AD Informer Set compounds were tested in two immortalized microglial cell lines, murine (BV2), and human (HMC3), in a high‐content imaging assay in duplicate by the Chu lab. Experimental details and all data can be found as supporting information files.
(§2) The role of microglia in AD has been well documented and was thus chosen as a cell type in which to profile the AD Informer Set.[43], [44], [45] As an example, neuroinflammation, as detected by the presence of activated complement proteins, interleukins, cytokines, and chemokines in microglia and astrocytes, is increased early in AD and is considered pathogenic due to its chronic nature.[33], [34] Cytotoxic effects can be assessed by considering multiple parameters.
(§3) Microglial viability and phagocytosis studies: The pHrodo-myelin phagocytosis/cell viability assay, modified based on a published method, was run with immortalized BV2 (mouse microglia) and HMC3 (human microglia) cell lines in the Chu lab at IUSM. The 384-well plate high content analysis assay with BV2 and HMC3 microglial cell lines is used to quantify both phagocytosis and cell viability simultaneously. High content imaging is performed with the ArrayScan automatic imaging system and imaging analysis done with the software on the system. After allowing cells to adhere overnight, they are treated with compounds for total 48 hours including final 20 hours seeded with pHrodo-myelin (labeled phagocytosis ligand, purified […]
(§4) (approximately 22 hours after pHrodo-myelin addition). Three measurements are extracted from the assay: 1) phagocytosis signal by mean total phagocytosis spot intensity per cell, 2) total cell counts per well as the main measurement of cell viability, and 3) mean average nuclear intensity per cell as profiling of cell health since apoptotic cells showing nuclear intensity increase (early apoptosis) and decrease (later apoptosis), respectively. These measurements allow for evaluation of compound-induced phagocytosis (1) and cytotoxicity (2 and 3). Assays were carried out at a single concentration (10 μM). Idelalisib (10 μM) and cytochalasin-D (4 μM) were used as positive controls in the assay. All data, which was an average of 2 data points, was normalized to untreated wells and reported as % control, which is included in the Supporting Information both as a raw data file and summarized in the compound/gene-annotation file.

[2] = tested on: HMC3 (human microglia) cell line; experiment: as above; conditions: for 1. Cell count (% control) / 2. Nuclear Area (% Control) / 3. Nuclear DNA Intensity (% control): 48 hours treatment
Experimental: as §1, §2, §3, §4

[3] = tested on: BV2 (mouse microglia) cell line; experiment: pHrodo-myelin phagocytosis/cell viability high content imaging assay: phagocytosis signal; format: cell-based
Experimental: (§5) It is important to note that stressed cells, such as those that are dying, are prone to show an increase in phagocytosis. […] MerTK promotes phagocytosis and thus MerTK inhibition is proposed to lead to inhibition of phagocytosis.[47]
(§6) phagocytosis and cell viability simultaneously. High content imaging is performed with the
(§7) (approximately 22 hours after pHrodo-myelin addition). Three measurements are extracted
(§8) intensity increase (early apoptosis) and decrease (later apoptosis), respectively. These
and 3). […]

[4] = tested on: HMC3 (human microglia) cell line; experiment: as above; format: cell-based
Experimental: as §5, §6, §7, §8
and 3). […]

[5] = BV2, compound 10 uM, pHrodo-myelin
[6] = HMC3, compound 10 uM, pHrodo-myelin
[7] = BV2 cells, 10 uM compound, 48 hours treatment, pHrodo-myelin final 20 hours
[8] = HMC3 cells, 10 uM compound, 48 hours treatment, pHrodo-myelin final 20 hours

Row | SMILES | 1. Cell count (% control) ([1]; BV2, compound 10 uM) | 2. Nuclear Area (% Control) ([1]; BV2, compound 10 uM) | 3. Nuclear DNA Intensity (% control) ([1]; BV2, compound 10 uM) | 1. Cell count (% control) ([2]; HMC3, compound 10 uM) | 2. Nuclear Area (% Control) ([2]; HMC3, compound 10 uM) | 3. Nuclear DNA Intensity (% control) ([2]; HMC3, compound 10 uM) | 4. Phagocytosis (% control) [3, 5] [% control] | 4. Phagocytosis (% control) [4, 6] [% control] | 1. Cell count (% control) ([1]; BV2 cells, 10 uM compound) | 2. Nuclear Area (% Control) ([1]; BV2 cells, 10 uM compound) | 3. Nuclear DNA Intensity (% control) ([1]; BV2 cells, 10 uM compound) | 1. Cell count (% control) ([2]; HMC3 cells, 10 uM compound) | 2. Nuclear Area (% Control) ([2]; HMC3 cells, 10 uM compound) | 3. Nuclear DNA Intensity (% control) ([2]; HMC3 cells, 10 uM compound) | 4. Phagocytosis (% control) [3, 7] [% control] | 4. Phagocytosis (% control) [4, 8] [% control] | cytotoxicity in mouse microglial cells (cell count < 70% control) ([1]; BV2, 10 μM, 48 hours, cell count) | cytotoxicity in human microglial cells (cell count < 70% control) ([2]; HMC3, 10 μM, 48 hours, cell count)
1 | Nc1ncnc2c1nc(Br)n2[C@@H]1O[C@@H]2COP(=O)([O-])O[C@H]2[C@H]1O.[Na+] [UNC10302698A] | 97.0 | 105.8 | 98.8 | 137.9 | 97.3 | 96.1 | 164.5 | 80.6 | – | – | – | – | – | – | – | – | – | –
2 | C[C@H](NC(=O)c1sccc1OCc1ccc(Cl)cc1)c1ccccc1 [UNC10302704A] | 95.5 | 101.0 | 97.2 | 112.7 | 95.6 | 89.7 | 123.4 | 66.4 | – | – | – | – | – | – | – | – | – | –
3 | CCN1CCN(Cc2ccc(NC(=O)c3ccc(C)c(NC(=O)c4cncc(-c5cccs5)c4)c3)cc2C(F)(F)F)CC1 [UNC10303158A] | 10.2 | 124.4 | 45.5 | 36.9 | 59.1 | 194.1 | 0.0043 | 0.0256 | – | – | – | – | – | – | – | – | – | –
4 | CN1c2ccc([N+](=O)[O-])cc2N=C(c2ccc(C(=O)O)cc2)c2cc3c(cc21)C(C)(C)CCC3(C)C [UNC10303107A] | – | – | – | – | – | – | – | – | 16.8 | 151.2 | 64.7 | 75.4 | 99.6 | 105.3 | 117.4 | 76.2 | – | –
5 | Cc1ccc(NC(=O)c2ccc(CN3CCN(C)CC3)cc2)cc1Nc1nc(-c2cccnc2)cs1 [UNC10126573A, masitinib, reference compound] | – | – | – | – | – | – | – | – | 7.7 | 107.9 | 43.3 | 71.0 | 92.7 | 124.1 | 0.0635 | 3.5 | displayed cytotoxicity only in mouse microglia | cytotoxicity only in mouse microglia
6 | N#Cc1ccc(COC[C@H]2O[C@@H](n3c(NCc4ccc(Cl)c(Cl)c4)nc4c(N)ncnc43)[C@H](O)[C@@H]2O)cc1 [UNC10302853A] | – | – | – | – | – | – | – | – | 54.5 | 107.2 | 111.0 | 92.6 | 103.1 | 98.3 | 176.9 | 88.3 | – | –
7 | O=c1oc2ccccc2cc1-c1cn2cc(Cc3ccc(F)cc3)sc2n1 [UNC10302680A] | – | – | – | – | – | – | – | – | 59.2 | 99.6 | 132.0 | 107.8 | 96.3 | 103.3 | 114.2 | 72.6 | – | –
8 | CCc1ccc(S(=O)(=O)c2ccccc2)cc1S(=O)(=O)NCCCN(C)C [UNC10302948A] | – | – | – | – | – | – | – | – | 115.1 | 106.0 | 108.0 | 127.5 | 97.8 | 101.2 | 187.1 | 143.6 | – | –
9 | C=CC[C@@H]1/C=C(\C)C[C@H](C)C[C@H](OC)[C@H]2O[C@@](O)(C(=O)C(=O)N3CCCC[C@H]3C(=O)O[C@H](/C(C)=C/[C@@H]3CC[C@@H](O)[C@H](OC)C3)[C@H](C)[C@@H](O)CC1=O)[C@H](C)C[C@@H]2OC [UNC10121346A] | – | – | – | – | – | – | – | – | 60.9 | 110.1 | 115.2 | 103.0 | 100.5 | 98.5 | 195.2 | 110.2 | – | –
